According to patent publication US9938322B2, “β-hairpin peptidomimetics” (priority 2013, dated 2018):
*1 amine or outer side, *2 acyl side, *3 side chain or, on linkers, in order; H or OH if unused. Where a SMILES comes first, the peptide text is derived from it. [ ]: non-standard residue; d: D form. Tic(7-OH) = O=C(O)[C@@H]1Cc2ccc(O)cc2CN1; Pro(3S-OH) = O=C(O)[C@H]1NCC[C@@H]1O; X1 = CC(C)NC[C@H](N[*:1])C(=O)[*:2]; Cha = N[C@@H](CC1CCCCC1)C(=O)O; Chg = N[C@H](C(=O)O)C1CCCCC1; Phg = N[C@H](C(=O)O)c1ccccc1; Tle = CC(C)(C)[C@H](N)C(=O)O; Pip = O=C(O)[C@@H]1CCCCN1; dDab = NCC[C@@H](N)C(=O)O; hSer = N[C@@H](CCO)C(=O)O; Orn = NCCC[C@H](N)C(=O)O; Dab = NCC[C@H](N)C(=O)O; Nva = CCC[C@H](N)C(=O)O; Dap = NC[C@H](N)C(=O)O

Test system: human red blood cells (hRBC)
Assay: Hemolysis of human red blood cells
Assay type: cell-based
Settings: red cells of human, 1 h, 100
Procedure: Lyophilized peptides were weighed on a Microbalance (Mettler MT5) and dissolved in sterile water to a final concentration of 1 mg/ml. Stock solutions were kept at +4° C., light protected.
The peptides were tested for their hemolytic activity against human red blood cells (hRBC). Fresh hRBC were washed three times with phosphate buffered saline (PBS) and centrifuged for 10 min at 2000×g. Compounds (100 μg/ml) were incubated with 20% hRBC (v/v) for 1 h at 37° C. and shaking at 300 rpm. The final erythrocyte concentration was approximately 0.9×10^9 cells/ml. A value of 0% and 100% cell lyses, respectively, was determined by incubation of hRBC in the presence of PBS containing 0.001% acetic acid and 2.5% Triton X-100 in H2O, respectively. The samples were centrifuged, the supernatants were 8-fold diluted in PBS buffer and the optical densities (OD) were measured at 540 nm. The 100% lyses value (OD540H2O) gave an OD540 of approximately 0.5-1.0.
Percent hemolysis was calculated as follows: (OD540peptide/OD540H2O)×100%.

Row | Compound | Hemolysis at 100 μg/ml [%]
1 | CC(C)NC[C@@H]1NC(=O)[C@H](Cc2c[nH]c3ccccc23)NC(=O)[C@@H]2CCCN2C(=O)[C@H]2CCCN2C(=O)[C@H](CO)NC(=O)[C@H](C)NC(=O)[C@H](C(C)(C)C)NC(=O)[C@H](CCO)NC(=O)[C@H](Cc2c[nH]c3ccccc23)NC(=O)[C@H](CCN)NC(=O)[C@@H](CCN)NC(=O)[C@H](CCCN)NC(=O)[C@H](CCN)NC(=O)[C@H](CC2CCCCC2)NC1=O [compound 9] (cyclo(W[X1][Cha][Dab][Orn][dDab][Dab]W[hSer][Tle]AS[dP]P)) | 2
2 | CC[C@H](C)[C@@H]1NC(=O)[C@@H]2CCCN2C(=O)[C@H]2CCCN2C(=O)[C@H](CO)NC(=O)[C@H](CO)NC(=O)[C@H](C(C)(C)C)NC(=O)[C@H](CCN)NC(=O)[C@H](Cc2c[nH]c3ccccc23)NC(=O)[C@H](CCN)NC(=O)[C@@H](CCN)NC(=O)[C@H](CCCN)NC(=O)[C@H](CCN)NC(=O)[C@H](CC2CCCCC2)NC(=O)[C@H](C)NC1=O [compound 151] (cyclo(IA[Cha][Dab][Orn][dDab][Dab]W[Dab][Tle]SS[dP]P)) | 7
3 | CC(C)C[C@@H]1NC(=O)[C@@H]2CCCN2C(=O)[C@H]2CCCN2C(=O)[C@H](CO)NC(=O)[C@H](C)NC(=O)[C@H](C(C)(C)C)NC(=O)[C@H](CCN)NC(=O)[C@H](Cc2c[nH]c3ccccc23)NC(=O)[C@H](CCN)NC(=O)[C@@H](CCN)NC(=O)[C@H](CCCN)NC(=O)[C@H](CCN)NC(=O)[C@H](Cc2ccccc2)NC(=O)[C@H](CO)NC1=O [compound 28] (cyclo(LSF[Dab][Orn][dDab][Dab]W[Dab][Tle]AS[dP]P)) | 2
4 | CC(C)C[C@@H]1NC(=O)[C@@H]2CCCN2C(=O)[C@H]2CCCN2C(=O)[C@H]([C@@H](C)O)NC(=O)[C@H](CO)NC(=O)[C@H](C(C)(C)C)NC(=O)[C@H](CCN)NC(=O)[C@H](Cc2c[nH]c3ccccc23)NC(=O)[C@H](CCN)NC(=O)[C@@H](CCN)NC(=O)[C@H](CCN)NC(=O)[C@H](CCN)NC(=O)[C@H](Cc2ccc(O)cc2)NC(=O)[C@H](CN)NC1=O [compound 149] (cyclo(L[Dap]Y[Dab][Dab][dDab][Dab]W[Dab][Tle]ST[dP]P)) | 4
5 | C[C@@H]1NC(=O)[C@H](C(C)(C)C)NC(=O)[C@H](CCN)NC(=O)[C@H](Cc2c[nH]c3ccccc23)NC(=O)[C@H](CCN)NC(=O)[C@@H](CCN)NC(=O)[C@H](CCCN)NC(=O)[C@H](CCN)NC(=O)[C@H](CC2CCCCC2)NC(=O)[C@H](CN)NC(=O)[C@H](Cc2c[nH]c3ccccc23)NC(=O)[C@@H]2Cc3ccc(O)cc3CN2C(=O)[C@H]2CCCN2C(=O)[C@H](CO)NC1=O [compound 61] (cyclo(AS[dP][Tic(7-OH)]W[Dap][Cha][Dab][Orn][dDab][Dab]W[Dab][Tle])) | 2
6 | CCC[C@@H]1NC(=O)[C@H](CCN)NC(=O)[C@H](Cc2c[nH]c3ccccc23)NC(=O)[C@H](CCN)NC(=O)[C@@H](CCN)NC(=O)[C@H](CCCN)NC(=O)[C@H](CCN)NC(=O)[C@H](Cc2ccc(O)cc2)NC(=O)[C@H](CO)NC(=O)[C@H](Cc2c[nH]c3ccccc23)NC(=O)[C@@H]2CCCN2C(=O)[C@H]2CCCN2C(=O)[C@H](CO)NC(=O)[C@H](C)NC1=O [compound 71] (cyclo(WSY[Dab][Orn][dDab][Dab]W[Dab][Nva]AS[dP]P)) | 0
7 | CC(C)C[C@@H]1NC(=O)[C@@H]2CCCN2C(=O)[C@H]2CCCN2C(=O)[C@H](CO)NC(=O)[C@H](C)NC(=O)[C@H](CC2CCCCC2)NC(=O)[C@H](CCN)NC(=O)[C@H](Cc2c[nH]c3ccccc23)NC(=O)[C@H](CCN)NC(=O)[C@@H](CCN)NC(=O)[C@H](CCCN)NC(=O)[C@H](CCN)NC(=O)[C@H](Cc2ccc(O)cc2)NC(=O)[C@H](C)NC1=O [compound 127] (cyclo(LAY[Dab][Orn][dDab][Dab]W[Dab][Cha]AS[dP]P)) | 1
8 | COc1ccc(C[C@@H]2NC(=O)[C@H](CCN)NC(=O)[C@H](Cc3c[nH]c4ccccc34)NC(=O)[C@H](CCN)NC(=O)[C@@H](CCN)NC(=O)[C@H](CCCN)NC(=O)[C@H](CCN)NC(=O)[C@H](Cc3ccc(O)cc3)NC(=O)[C@H](CO)NC(=O)[C@H](CC(C)C)NC(=O)[C@@H]3CCCN3C(=O)[C@H]3CCCN3C(=O)[C@H](CO)NC(=O)[C@H](C)NC2=O)cc1 [compound 32] (cyclo(LSY[Dab][Orn][dDab][Dab]W[Dab]Y(Me)AS[dP]P)) | 1
9 | C[C@@H]1NC(=O)[C@H](C(C)(C)C)NC(=O)[C@H](CCN)NC(=O)[C@H](Cc2c[nH]c3ccccc23)NC(=O)[C@H](CCN)NC(=O)[C@@H](CCN)NC(=O)[C@H](CCCN)NC(=O)[C@H](CCN)NC(=O)[C@H](CC2CCCCC2)NC(=O)[C@H](CN)NC(=O)[C@H](Cc2c[nH]c3ccccc23)NC(=O)[C@@H]2CCCCN2C(=O)[C@H]2CCCN2C(=O)[C@H](CO)NC1=O [compound 63] (cyclo(AS[dP][Pip]W[Dap][Cha][Dab][Orn][dDab][Dab]W[Dab][Tle])) | 3
10 | CC(C)C[C@@H]1NC(=O)[C@@H]2CCCN2C(=O)[C@H]2CCCN2C(=O)[C@H](CO)NC(=O)[C@H](C)NC(=O)[C@H](c2ccccc2)NC(=O)[C@H](CCN)NC(=O)[C@H](Cc2c[nH]c3ccccc23)NC(=O)[C@H](CCN)NC(=O)[C@@H](CCN)NC(=O)[C@H](CCCN)NC(=O)[C@H](CCN)NC(=O)[C@H](Cc2ccc(O)cc2)NC(=O)[C@H](CO)NC1=O [compound 107] (cyclo(LSY[Dab][Orn][dDab][Dab]W[Dab][Phg]AS[dP]P)) | 2
11 | CC(C)C[C@@H]1NC(=O)[C@@H]2CCCN2C(=O)[C@H]2CCCN2C(=O)[C@H](CO)NC(=O)[C@H](CC(N)=O)NC(=O)[C@H](C(C)(C)C)NC(=O)[C@H](CCN)NC(=O)[C@H](Cc2c[nH]c3ccccc23)NC(=O)[C@H](CCN)NC(=O)[C@@H](CCN)NC(=O)[C@H](CCCN)NC(=O)[C@H](CCN)NC(=O)[C@H](Cc2ccc(O)cc2)NC(=O)[C@H]([C@@H](C)O)NC1=O [compound 119] (cyclo(LTY[Dab][Orn][dDab][Dab]W[Dab][Tle]NS[dP]P)) | 1
12 | CC(C)C[C@@H]1NC(=O)[C@@H]2CCCN2C(=O)[C@H]2CCCN2C(=O)[C@H](CO)NC(=O)[C@H](C)NC(=O)[C@H](C2CCCCC2)NC(=O)[C@H](CCN)NC(=O)[C@H](Cc2c[nH]c3ccccc23)NC(=O)[C@H](CCN)NC(=O)[C@H](CCN)NC(=O)[C@H](CCCN)NC(=O)[C@H](CCN)NC(=O)[C@H](Cc2ccc(O)cc2)NC(=O)[C@H](CO)NC1=O [compound 94] (cyclo(LSY[Dab][Orn][Dab][Dab]W[Dab][Chg]AS[dP]P)) | 0
13 | CCC[C@@H]1NC(=O)[C@@H]2CCCN2C(=O)[C@H]2CCCN2C(=O)[C@H](CO)NC(=O)[C@H](C)NC(=O)[C@H](C2CCCCC2)NC(=O)[C@H](CCN)NC(=O)[C@H](Cc2c[nH]c3ccccc23)NC(=O)[C@H](CCN)NC(=O)[C@@H](CCN)NC(=O)[C@H](CCCN)NC(=O)[C@H](CCN)NC(=O)[C@H](C(C)(C)C)NC(=O)[C@H](CO)NC1=O [compound 138] (cyclo([Nva]S[Tle][Dab][Orn][dDab][Dab]W[Dab][Chg]AS[dP]P)) | 1
14 | CC(C)C[C@@H]1NC(=O)[C@@H]2CCCN2C(=O)[C@H]2CCCN2C(=O)[C@H](CO)NC(=O)[C@H](C)NC(=O)[C@H](C(C)(C)C)NC(=O)[C@H](CCCNC(=N)N)NC(=O)[C@H](Cc2c[nH]c3ccccc23)NC(=O)[C@H](CCN)NC(=O)[C@@H](CCN)NC(=O)[C@H](CCCN)NC(=O)[C@H](CCN)NC(=O)[C@H](Cc2ccc(O)cc2)NC(=O)[C@H](CO)NC1=O [compound 97] (cyclo(LSY[Dab][Orn][dDab][Dab]WR[Tle]AS[dP]P)) | 1
15 | C[C@@H]1NC(=O)[C@H](Cc2c[nH]c3ccccc23)NC(=O)[C@@H]2[C@@H](O)CCN2C(=O)[C@H]2CCCN2C(=O)[C@H](CO)NC(=O)[C@H](CO)NC(=O)[C@H](C(C)(C)C)NC(=O)[C@H](CCN)NC(=O)[C@H](Cc2c[nH]c3ccccc23)NC(=O)[C@H](CCN)NC(=O)[C@@H](CCN)NC(=O)[C@H](CCCN)NC(=O)[C@H](CCN)NC(=O)[C@H](C2CCCCC2)NC1=O [compound 65] (cyclo(WA[Chg][Dab][Orn][dDab][Dab]W[Dab][Tle]SS[dP][Pro(3S-OH)])) | 3.5
16 | CC(C)C[C@@H]1NC(=O)[C@@H]2CCCN2C(=O)[C@H]2CCCN2C(=O)[C@H](CO)NC(=O)[C@H](C)NC(=O)[C@H](Cc2c[nH]c3ccccc23)NC(=O)[C@H](CCN)NC(=O)[C@H](Cc2c[nH]c3ccccc23)NC(=O)[C@H](CCN)NC(=O)[C@@H](CCN)NC(=O)[C@H](CCCN)NC(=O)[C@H](CCN)NC(=O)[C@H](Cc2ccc(O)cc2)NC(=O)[C@H](CO)NC1=O [compound 34] (cyclo(LSY[Dab][Orn][dDab][Dab]W[Dab]WAS[dP]P)) | 1
17 | C[C@@H]1NC(=O)[C@H](C(C)(C)C)NC(=O)[C@H](CCN)NC(=O)[C@H](Cc2c[nH]c3ccccc23)NC(=O)[C@H](CCN)NC(=O)[C@@H](CCN)NC(=O)[C@H](CCCN)NC(=O)[C@H](CCN)NC(=O)[C@H](CC2CCCCC2)NC(=O)[C@H](CCO)NC(=O)[C@H](Cc2c[nH]c3ccccc23)NC(=O)[C@@H]2CCCN2C(=O)[C@H]2CCCN2C(=O)[C@H](CO)NC1=O [compound 18] (cyclo(W[hSer][Cha][Dab][Orn][dDab][Dab]W[Dab][Tle]AS[dP]P)) | 3
18 | CC(C)C[C@@H]1NC(=O)[C@@H]2CCCN2C(=O)[C@H]2CCCN2C(=O)[C@H](CO)NC(=O)[C@H](C)NC(=O)[C@H](C(C)(C)C)NC(=O)[C@H](CCN)NC(=O)[C@H](Cc2c[nH]c3ccccc23)NC(=O)[C@H](CCN)NC(=O)[C@@H](CCN)NC(=O)[C@H](CCCCN)NC(=O)[C@H](CCN)NC(=O)[C@H](Cc2ccc(O)cc2)NC(=O)[C@H](CO)NC1=O [compound 25] (cyclo(LSY[Dab]K[dDab][Dab]W[Dab][Tle]AS[dP]P)) | 1
